Experimental data from patent US20180085374A1, “Use of Morpholino Compounds for the Treatment of Halitosis” (MERIAL INC., priority 2007, published 2018).

What was measured:
[1] = test system: Volatile Sulphur Compounds (VSCs); experiment: Levels of VSCs following treatment with delmopinol; format: in vivo
oral bacteria = settings: delmopinol mouthwash; cited from earlier work

CCCC(CCC)CCCC1COCCN1CCO (centres unmarked) [delmopinol, 3-(4-propyl-heptyl)-4-(2-hydroxyethyl)morpholine]
levels of VSCs [1]: decrease
numbers or proportions of oral bacteria (oral bacteria): does not significantly affect
